# Reference: patent publication US9499550B2 (BRISTOL-MYERS SQUIBB COMPANY, priority 2012, dated 2016)
# pEC50: −log10 of the molar value.
# Experiments:
# [1] = test system: HCV genotype 1a (H77 strain) replicon in HUH-7 cells; assay: HCV replicon luciferase reporter assay, genotype 1a; assay type: cell-based; conditions: Hepatitis C virus, Huh-7, 72 h, HCV genotype 1a replicon luciferase assay, 3 days incubation, range class, read-out: LE_1a (EC50, range)
# Summary of the method: (§1)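 Replicon inhibition for both genotypes was measured as Renilla luciferase signal (EnduRen, 7.5 μM final, 2 h) after 3-day, 37° C exposure of replicon-bearing HUH-7 cells in 4% FCS DMEM, 0.5% DMSO. The 1b construct carries S1179I; the 1a H77 construct carries P1496L and S2204I. Twenty-point, 3-fold dilutions were fitted four-parametrically for EC50, and CC50 was taken from multiplexed Cell Titer-Blue.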
# [2] = test system: HCV genotype 1b (Con1) replicon in HUH-7 cells; assay: HCV replicon luciferase reporter assay, genotype 1b; assay type: cell-based; conditions: Hepatitis C virus, Huh-7, 72 h, HCV genotype 1b replicon luciferase assay, 3 days incubation, range class, read-out: LE_1b (EC50, range)
# Summary of the method: as §1
SMILES,pEC50 [1],pEC50 [2]
"COc1ccc2c(O[C@@H]3C[C@H]4C(=O)N[C@]5(C(=O)NS(=O)(=O)C6CC6)C[C@H]5/C=C\CC[C@@H](C)C[C@@H](C)[C@H](NC(=O)OC(C)(C)C(F)(F)F)C(=O)N4C3)nc(-c3ccc(OC(C)C)cc3)nc2c1 [Compound 3022, 1,1,1-trifluoro-2-methylpropan-2-yl((2R,6S,7R,9R,13aS,14aR,16aS,Z)-14a-((cyclopropylsulfonyl)carbamoyl)-2-((2-(4-isopropoxyphenyl)-7-methoxyquinazolin-4-yl)oxy)-7,9-dimethyl-5,16-dioxo-1,2,3,5,6,7,8,9,10,11,13a,14,14a,15,16,16a-hexadecahydrocyclopropa[e]pyrrolo[1,2-a][1,4]diazacyclopentadecin-6-yl)carbamate]",> 8.26,> 8.26
"CC[C@@H]1C[C@@H](C)CC/C=C\[C@@H]2C[C@@]2(C(=O)NS(=O)(=O)C2(C)CC2)NC(=O)[C@@H]2C[C@@H](Oc3nccc4c(OC)cccc34)CN2C(=O)[C@H]1NC(=O)OC(C)(C)C [Compound 3023, tert-butyl ((2R,6S,7R,9S,13aS,14aR,16aS,Z)-7-ethyl-2-((5-methoxyisoquinolin-1-yl)oxy)-9-methyl-14a-(((1-methylcyclopropyl)sulfonyl)carbamoyl)-5,16-dioxo-1,2,3,5,6,7,8,9,10,11,13a,14,14a,15,16,16a-hexadecahydrocyclopropa[e]pyrrolo[1,2-a][1,4]diazacyclopentadecin-6-yl)carbamate]",6.99 to 8.32,6.99 to 8.32
"CC[C@@H]1C[C@H](C)CC/C=C\[C@@H]2C[C@@]2(C(=O)NS(=O)(=O)C2(C)CC2)NC(=O)[C@@H]2C[C@@H](Oc3nccc4c(OC)cccc34)CN2C(=O)[C@H]1NC(=O)OC(C)(C)C [Compound 3024, tert-butyl ((2R,6S,7R,9R,13aS,14aR,16aS,Z)-7-ethyl-2-((5-methoxyisoquinolin-1-yl)oxy)-9-methyl-14a-(((1-methylcyclopropyl)sulfonyl)carbamoyl)-5,16-dioxo-1,2,3,5,6,7,8,9,10,11,13a,14,14a,15,16,16a-hexadecahydrocyclopropa[e]pyrrolo[1,2-a][1,4]diazacyclopentadecin-6-yl)carbamate]",> 8.26,> 8.26
"CC[C@@H]1C[C@@H](C)CC/C=C\[C@@H]2C[C@@]2(C(=O)NS(=O)(=O)C2CC2)NC(=O)[C@@H]2C[C@@H](Oc3nccc4c(OC)cccc34)CN2C(=O)[C@H]1NC(=O)OC(C)(C)C [Compound 3025, tert-butyl ((2R,6S,7R,9S,13aS,14aR,16aS,Z)-14a-((cyclopropylsulfonyl)carbamoyl)-7-ethyl-2-((5-methoxyisoquinolin-1-yl)oxy)-9-methyl-5,16-dioxo-1,2,3,5,6,7,8,9,10,11,13a,14,14a,15,16,16a-hexadecahydrocyclopropa[e]pyrrolo[1,2-a][1,4]diazacyclopentadecin-6-yl)carbamate]",6.99 to 8.32,6.99 to 8.32
"CC[C@@H]1C[C@H](C)CC/C=C\[C@@H]2C[C@@]2(C(=O)NS(=O)(=O)C2CC2)NC(=O)[C@@H]2C[C@@H](Oc3nccc4c(OC)cccc34)CN2C(=O)[C@H]1NC(=O)OC(C)(C)C [Compound 3026, tert-butyl ((2R,6S,7R,9R,13aS,14aR,16aS,Z)-14a-((cyclopropylsulfonyl)carbamoyl)-7-ethyl-2-((5-methoxyisoquinolin-1-yl)oxy)-9-methyl-5,16-dioxo-1,2,3,5,6,7,8,9,10,11,13a,14,14a,15,16,16a-hexadecahydrocyclopropa[e]pyrrolo[1,2-a][1,4]diazacyclopentadecin-6-yl)carbamate]",> 8.26,> 8.26
"CC[C@@H]1C[C@@H](C)CC/C=C\[C@@H]2C[C@@]2(C(=O)NS(=O)(=O)C2(C)CC2)NC(=O)[C@@H]2C[C@@H](Oc3nccc4c(OC)cccc34)CN2C(=O)[C@H]1NC(=O)OC(C)(C)C(F)(F)F [Compound 3027, 1,1,1-trifluoro-2-methylpropan-2-yl((2R,6S,7R,9S,13aS,14aR,16aS,Z)-7-ethyl-2-((5-methoxyisoquinolin-1-yl)oxy)-9-methyl-14a-(((1-methylcyclopropyl)sulfonyl)carbamoyl)-5,16-dioxo-1,2,3,5,6,7,8,9,10,11,13a,14,14a,15,16,16a-hexadecahydrocyclopropa[e]pyrrolo[1,2-a][1,4]diazacyclopentadecin-6-yl)carbamate]",6.99 to 8.32,6.99 to 8.32
"CC[C@@H]1C[C@H](C)CC/C=C\[C@@H]2C[C@@]2(C(=O)NS(=O)(=O)C2(C)CC2)NC(=O)[C@@H]2C[C@@H](Oc3nccc4c(OC)cccc34)CN2C(=O)[C@H]1NC(=O)OC(C)(C)C(F)(F)F [Compound 3028, 1,1,1-trifluoro-2-methylpropan-2-yl((2R,6S,7R,9R,13aS,14aR,16aS,Z)-7-ethyl-2-((5-methoxyisoquinolin-1-yl)oxy)-9-methyl-14a-(((1-methylcyclopropyl)sulfonyl)carbamoyl)-5,16-dioxo-1,2,3,5,6,7,8,9,10,11,13a,14,14a,15,16,16a-hexadecahydrocyclopropa[e]pyrrolo[1,2-a][1,4]diazacyclopentadecin-6-yl)carbamate]",> 8.26,> 8.26
"CC[C@@H]1C[C@@H](C)CC/C=C\[C@@H]2C[C@@]2(C(=O)NS(=O)(=O)C2CC2)NC(=O)[C@@H]2C[C@@H](Oc3nccc4c(OC)cccc34)CN2C(=O)[C@H]1NC(=O)NC(C)(C)C [Compound 3029, (2R,6S,7R,9S,13aS,14aR,16aS,Z)-6-(3-(tert-butyl)ureido)-N-(cyclopropylsulfonyl)-7-ethyl-2-((5-methoxyisoquinolin-1-yl)oxy)-9-methyl-5,16-dioxo-1,2,3,5,6,7,8,9,10,11,13a,14,14a,15,16,16a-hexadecahydrocyclopropa[e]pyrrolo[1,2-a][1,4]diazacyclopentadecine-14a-carboxamide]",6.99 to 8.32,6.99 to 8.32
"CC[C@@H]1C[C@H](C)CC/C=C\[C@@H]2C[C@@]2(C(=O)NS(=O)(=O)C2CC2)NC(=O)[C@@H]2C[C@@H](Oc3nccc4c(OC)cccc34)CN2C(=O)[C@H]1NC(=O)NC(C)(C)C [Compound 3030, (2R,6S,7R,9R,13aS,14aR,16aS,Z)-6-(3-(tert-butyl)ureido)-N-(cyclopropylsulfonyl)-7-ethyl-2-((5-methoxyisoquinolin-1-yl)oxy)-9-methyl-5,16-dioxo-1,2,3,5,6,7,8,9,10,11,13a,14,14a,15,16,16a-hexadecahydrocyclopropa[e]pyrrolo[1,2-a][1,4]diazacyclopentadecine-14a-carboxamide]",> 8.26,> 8.26
"CC[C@@H]1C[C@@H](C)CC/C=C\[C@@H]2C[C@@]2(C(=O)NS(=O)(=O)C2CC2)NC(=O)[C@@H]2C[C@@H](Oc3nccc4c(OC)cccc34)CN2C(=O)[C@H]1NC(=O)OC(C)(C)C(F)(F)F [Compound 3031, 1,1,1-trifluoro-2-methylpropan-2-yl((2R,6S,7R,9S,13aS,14aR,16aS,Z)-14a-((cyclopropylsulfonyl)carbamoyl)-7-ethyl-2-((5-methoxyisoquinolin-1-yl)oxy)-9-methyl-5,16-dioxo-1,2,3,5,6,7,8,9,10,11,13a,14,14a,15,16,16a-hexadecahydrocyclopropa[e]pyrrolo[1,2-a][1,4]diazacyclopentadecin-6-yl)carbamate]",6.99 to 8.32,6.99 to 8.32
"CC[C@@H]1C[C@H](C)CC/C=C\[C@@H]2C[C@@]2(C(=O)NS(=O)(=O)C2CC2)NC(=O)[C@@H]2C[C@@H](Oc3nccc4c(OC)cccc34)CN2C(=O)[C@H]1NC(=O)OC(C)(C)C(F)(F)F [Compound 3032, 1,1,1-trifluoro-2-methylpropan-2-yl((2R,6S,7R,9R,13aS,14aR,16aS,Z)-14a-((cyclopropylsulfonyl)carbamoyl)-7-ethyl-2-((5-methoxyisoquinolin-1-yl)oxy)-9-methyl-5,16-dioxo-1,2,3,5,6,7,8,9,10,11,13a,14,14a,15,16,16a-hexadecahydrocyclopropa[e]pyrrolo[1,2-a][1,4]diazacyclopentadecin-6-yl)carbamate]",> 8.26,> 8.26
"CC[C@@H]1C[C@@H](C)CC/C=C\[C@@H]2C[C@@]2(C(=O)NS(=O)(=O)C2(C)CC2)NC(=O)[C@@H]2C[C@@H](Oc3nccc4c(OC)cccc34)CN2C(=O)[C@H]1NC(=O)NC(C)(C)C [Compound 3033, (2R,6S,7R,9S,13aS,14aR,16aS,Z)-6-(3-(tert-butyl)ureido)-7-ethyl-2-((5-methoxyisoquinolin-1-yl)oxy)-9-methyl-N-((1-methylcyclopropyl)sulfonyl)-5,16-dioxo-1,2,3,5,6,7,8,9,10,11,13a,14,14a,15,16,16a-hexadecahydrocyclopropa[e]pyrrolo[1,2-a][1,4]diazacyclopentadecine-14a-carboxamide]",6.99 to 8.32,6.99 to 8.32
"CC[C@@H]1C[C@H](C)CC/C=C\[C@@H]2C[C@@]2(C(=O)NS(=O)(=O)C2(C)CC2)NC(=O)[C@@H]2C[C@@H](Oc3nccc4c(OC)cccc34)CN2C(=O)[C@H]1NC(=O)NC(C)(C)C [Compound 3034, (2R,6S,7R,9R,13aS,14aR,16aS,Z)-6-(3-(tert-butyl)ureido)-7-ethyl-2-((5-methoxyisoquinolin-1-yl)oxy)-9-methyl-N-((1-methylcyclopropyl)sulfonyl)-5,16-dioxo-1,2,3,5,6,7,8,9,10,11,13a,14,14a,15,16,16a-hexadecahydrocyclopropa[e]pyrrolo[1,2-a][1,4]diazacyclopentadecine-14a-carboxamide]",> 8.26,> 8.26
